Results from patent US7592330B2, “Methods and compositions for preserving the viability of photoreceptor cells” (Massachusetts Eye and Ear Infirmary, priority 2005, dated 2009).

Experiments:
[1] = system: photoreceptor cells; format: in vivo, Brown Norway rats
Protocol: Methods. Retinal detachments were created in the eyes of Brown Norway rats by injecting 10% hyaluronic acid into the subretinal space using a transvitreal approach. FK506 (tacrolimus) (5 mg/kg/day) diluted in PBS was administered by gastric gavage one day prior to the induction of retinal detachment, on the day of the induction, and for the two following days (n=6). Control animals received the same volume of PBS (0.5 cc) by gastric gavage one day prior to the induction of retinal detachment, on the day of the induction, and for the two following days (n=3). […] All eyes were enucleated 72 hours after retinal detachment induction and embedded in paraffin. Fourteen micrometer sections were subsequently obtained. DNA fragmentation was examined using terminal dUTP-biotin nick end-labeling (TUNEL). A masked observer counted TUNEL-positive cells and obtained an average from three adjacent standardized fields in two serial sections.

[2] = system: calpain-mediated cleavage of calcineurin; assay: ALLM treatment in experimental retinal detachment, Western blot of calcineurin cleavage (Example 4, Experiment #2); format: in vivo, Brown Norway rats
Source text: The following experiments determine that calcineurin is cleaved after retinal detachment and that pharmacologic inhibition of calpain will prevent this activation. In particular, retinas of rats with experimental retinal detachment will be examined for biochemical evidence of calcineurin activation. These experiments also determine that calcineurin cleavage is mediated by the calcium-dependent enzyme, calpain. […] Finally, they determine that calcineurin inhibitors like FK506 have a neuroprotective effect on photoreceptor cells death.
One day prior to surgical induction, animals are started on a treatment of ALLM (20 mg/kg/day, intraperitoneal administration), a calpain inhibitor, or vehicle control, and administration continues throughout the study. For this experiment, the animals are followed for three or five days after retinal detachment. At the end of this period, animals are sacrificed and their eyes are removed for either protein isolation or immunohistochemistry. Fellow eyes are used as controls. Western blot analysis is used to determine levels of retinal calcineurin and calcineurin cleavage products. Six animals per group are used.
Retinal Detachment Model. […]

[3] = target: T1, caspase 7 (Homo sapiens, UniProt P55210); settings: cited from earlier work
T1 sequence (P55210 24-198 limits assumed): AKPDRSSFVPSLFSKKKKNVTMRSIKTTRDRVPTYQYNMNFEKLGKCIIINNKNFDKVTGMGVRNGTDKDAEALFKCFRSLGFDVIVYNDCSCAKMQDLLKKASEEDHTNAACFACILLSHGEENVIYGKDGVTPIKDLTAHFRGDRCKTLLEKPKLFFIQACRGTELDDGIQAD
T1 sequence (P55210 207-303 limits assumed): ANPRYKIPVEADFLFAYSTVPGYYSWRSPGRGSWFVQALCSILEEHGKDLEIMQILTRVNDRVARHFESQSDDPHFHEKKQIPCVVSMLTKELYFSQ

[4] = target: T2, caspase 4 (Homo sapiens, UniProt P49662); settings: cited from earlier work
T2 sequence (P49662 81-270 limits assumed): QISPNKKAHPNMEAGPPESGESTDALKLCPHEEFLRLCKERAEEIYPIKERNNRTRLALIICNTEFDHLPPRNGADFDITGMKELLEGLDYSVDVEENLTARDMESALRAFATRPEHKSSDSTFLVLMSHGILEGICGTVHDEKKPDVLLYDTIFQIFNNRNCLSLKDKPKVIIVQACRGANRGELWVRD
T2 sequence (P49662 290-377 limits assumed): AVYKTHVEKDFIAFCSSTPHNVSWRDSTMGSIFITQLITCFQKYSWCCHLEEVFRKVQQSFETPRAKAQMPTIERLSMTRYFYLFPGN

[5] = target: T3, caspase 1 (Homo sapiens, UniProt P29466); settings: cited from earlier work
T3 sequence (P29466 120-297 limits assumed): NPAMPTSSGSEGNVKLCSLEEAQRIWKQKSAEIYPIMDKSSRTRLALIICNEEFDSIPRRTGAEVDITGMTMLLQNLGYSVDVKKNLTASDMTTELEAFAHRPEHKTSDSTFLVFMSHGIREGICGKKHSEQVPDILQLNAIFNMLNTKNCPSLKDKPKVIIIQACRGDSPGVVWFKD
T3 sequence (P29466 317-404 limits assumed): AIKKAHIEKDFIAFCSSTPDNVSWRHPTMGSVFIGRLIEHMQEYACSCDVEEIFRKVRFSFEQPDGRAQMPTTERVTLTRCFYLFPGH

[6] = target: T4, caspase 3 (Homo sapiens, UniProt P42574); settings: cited from earlier work
T4 sequence (P42574 29-175 limits assumed): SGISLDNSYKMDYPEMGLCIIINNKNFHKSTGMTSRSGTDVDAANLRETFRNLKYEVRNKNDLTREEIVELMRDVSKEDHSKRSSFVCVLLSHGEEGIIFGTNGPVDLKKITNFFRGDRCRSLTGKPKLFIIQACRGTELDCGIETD
T4 sequence (P42574 176-277 limits assumed): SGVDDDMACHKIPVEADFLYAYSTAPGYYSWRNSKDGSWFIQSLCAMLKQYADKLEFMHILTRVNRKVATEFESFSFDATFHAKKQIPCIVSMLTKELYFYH

[7] = system: photoreceptor cells; assay: Caspase inhibitor injected into region of retinal detachment, TUNEL staining (Example 2); format: in vivo, Brown-Norway rats; settings: 25 μl of 0.2, 2 or 20 mM inhibitor in DMSO into region of detachment; 72 hours; relative to untreated eyes
Protocol: The caspase inhibitor, Z-Val-Ala-Asp-fluoromethylketone is dissolved in dimethyl sulfoxide (DMSO) to give the final concentrations of 0.2 mM, 2 mM, and 20 mM. After creating the retinotomy with the subretinal injector, a small amount of Healon® sodium hyaluronate is injected in the subretinal space so as to elevate the retina. After retinal elevation, a Hamilton syringe with a 33 gauge needle is introduced through the retinotomy site, and 25 μl of inhibitor is injected into the region of detachment. About 25 minutes later, Healon® sodium hyaluronate is injected, via the same retinotomy site, to maintain the retinal detachment. Healon® sodium hyaluronate is injected until resistance is detected.
Only the right eyes of rats are used in evaluating the role of the Z-VAD-FMK inhibitor. The left eyes serve as the controls. Five animals are used for each concentration of inhibitor (namely, no inhibitor, 0.2 mM inhibitor, 2 mM inhibitor, and 20 mM inhibitor). For the no inhibitor control, 25 μl of DMSO is injected into the region of detachment followed by Healon® sodium hyaluronate.
After 72 hours, the eyes are enucleated and the rats euthanized. The enucleated eyes are paraffin embedded as described in Example 1. Then, 6 μm sections from the posterior segments are analyzed by TUNEL staining as described in Example 1.

C=CC[C@@H]1/C=C(\C)C[C@H](C)C[C@H](OC)[C@H]2O[C@@](O)(C(=O)C(=O)N3CCCC[C@H]3C(=O)O[C@H](/C(C)=C/[C@@H]3CC[C@@H](O)[C@H](OC)C3)[C@H](C)[C@@H](O)CC1=O)[C@H](C)C[C@@H]2OC [FK506, FK506 (tacrolimus)]
TUNEL-positive cells (mean±SD) ([1]; FK506 5 mg/kg/day by gastric gavage, from one day prior to detachment, eyes enucleated 72 hours after retinal detachment, n=6): 130.13±54.3 | morphological signs of toxicity in the eyes ([1]; rat, in vivo, 5 mg/kg/day): no morphological signs of toxicity | reduction in the mean number of TUNEL-positive cells ([1]; treated group vs PBS control, 72 hours after detachment, p<0.05): 35%

Ac-Leu-Leu-Met-H (aldehyde) [ALLM]
levels of retinal calcineurin and calcineurin cleavage products ([2]; ALLM 20 mg/kg/day intraperitoneal, three or five days after retinal detachment): inhibition of the calpain-mediated cleavage pathway | photoreceptor cell death ([2]; treatment with ALLM in experimental retinal detachment): protect photoreceptor cells from death

Ac-Tyr-Val-Ala-Asp-aldehyde (SEQ ID NO: 7)
Ki [3]: ≥ 50000 nM | Ki [4]: 10 nM | Ki [5]: 10 nM | Ki [6]: ≥ 50000 nM

Z-Val-Ala-Asp-fluoromethylketone
inhibition of caspase 7 [3]: inhibits | inhibition of caspase 4 [4]: inhibits | inhibition of caspase 1 [5]: inhibits | inhibition of caspase 3 [6]: inhibits | TUNEL-positive photoreceptor cells in the region of retinal detachment [7]: fewer photoreceptor cells in the region of retinal detachment that stain TUNEL-positive
